# Source: patent US11491132B2, “Methods for treating thrombocytopenia” (Enzychem Lifesciences Corporation, priority 2014, dated 2022)
# Legend:
# [1] = test system: white blood cells and neutrophils; assay: PLAG in combination with G-CSF in cyclophosphamide-treated mouse model; format: in vivo, mice; details: addition of PLAG to G-CSF; levels vs untreated mice
# Description: Mice receive cyclophosphamide (100 mpk, i.p.) for a period of ten days, with or without G-CSF (0.25 mpk, i.p.) or G-CSF (0.25 mpk, i.p.) plus PLAG (25 mpk, p.o.): […]
# Complement 3 = assay: Clinical study: activity of PLAG on Complement 3 in healthy subjects; format: in vivo, human
# Protocol: A clinical study is conducted in Gwandong University MyungJi Hospital Clinical Study Center in Republic of Korea with 27 healthy patients to study immune-modulating effect of PLAG. Volunteers are tested for 30 days in vivo as oral administer (500 mg of PLAG per day) under a legitimate clinical approval. Complement 3 is counted using C3 assay kit. The analysis result is shown in FIG. 7, and change of immunoactivity by the administration of PLAG in healthy subjects is shown in Table 8 (effect of PLAG supplementation on immune function of peripheral blood after 4-wk intervention). As shown in FIG. 7 and Table 8, the majority of those who consume PLAG for a month (twenty-six (26) subjects out of 27 patients) show decreased complement 3 (C3), while the control group, who are treated with soybean oil, show both increase and decrease of C3.
# platelets [2] = assay: Lipopolysaccharide-induced platelet reduction in mice; format: in vivo; details: LPS 1 mg/kg, PLAG 1 mg/kg, 15 hours after PLAG treatment
# Protocol: (§1) Mice are injected with 100 mg/kg phenylhydrazine (PHZ), i.p., to induce anemia and reduction of platelets. 5 mg/kg PLAG is administered to the mice orally and blood samples are taken at 3 and 13 days after. In addition, for comparison, normal mice which are not treated with phenylhydrazine are prepared as a normal group, and mice treated with PHZ and olive oil instead of PLAG are prepared as a control group. The blood samples taken from the mice are treated with 0.5 ml EDTA (Minicollect tube, Greiner bio-one, Austria) and concentration of platelet is measured using automated blood sample analyzer BC-6800 (Mindray, Shenzhen, China) by number of platelet per […] (k: 1,000).
# The experiment is repeated using Tamoxifen (Tam), an anticancer agent, injected at the amount of 100 mg/kg, or lipopolysaccharide (LPS), an inflammation inducer, at the amount of 1 mg/kg to induce platelet reduction. Platelet concentration is measured 15 hours after PLAG treatment. For comparison, olive oil and PBS are used instead of PLAG as controls, respectively for the Tamoxifen and lipopolysaccharide experiment.
# [3] = test system: neutrophils, platelets, Complement 3; assay: Chemotherapy-induced neutropenia and thrombocytopenia (CIN) animal model; format: in vivo, mice
# Protocol: The effect of PLAG for treatment of neutropenia and thrombocytopenia induced by chemotherapy (CIN) is evaluated in an animal model. Anti-cancer agents (Gemcitabine 50 mg/kg, Cyclosphosphamide […], or Tamoxifen 50 mg/kg) are dosed daily for 3 weeks; PLAG is also administered 50 mg/kg daily for 3 weeks. After three weeks, neutrophils are harvested and counted with Auto Hematology Analyzer BC-5300.
# It is believed that the neutropenia and thrombocytopenia of these agents and other chemotherapeutic agents may be due at least in part to a specific complement-mediated toxicity. This is seen in FIG. 6.
# platelets [4] = assay: Phenylhydrazine-induced platelet reduction in mice; format: in vivo; details: PHZ 100 mg/kg i.p., PLAG 5 mg/kg orally
# Protocol: To evaluate the effect of PLAG on the concentration of platelets mice are treated with compounds which would be expected to cause reductions in platelet numbers, specifically phenylhydrazine, tamoxifen or lipopolysaccharide.
# as §1
# C3 = C3 expression in IL-4/TNF-α treated HMC-1 cells, RT-PCR; format: cell-based, human; details: HMC-1 cells treated with IL-4 and TNF-α; PLAG 0.1 and 1 μg/mL pre-treatment, or S6I
# Protocol: A blood cell line, HMC-1 (human mast cell, American Type Culture Collection, ATCC, Rockville, Md.) is incubated and maintained at 37° C. under 5% CO2 humid conditions. The medium is IMDM (Life Technologies, Karlsruhe, Germany) containing 10% Fetal Calf Serum (FCS, HyClone, Logan, Utah), 2 mM […], 100 μg/ml penicillin, 100 μg/ml streptomycin (Life Technologies). The cultured HMC-1 cells (1×10^6 cell/ml) are pre-treated with 0.1 and 1 μg/mL concentration of PLAG, followed by treating with IL-4 (5 ng) and/or TNF-α (10 ng) to induce cellular activities.
# The expressed C3 and its mRNA level change are observed by using RT-PCR (Reverse Transcriptase Polymerase Chain Reaction). The RT-PCR is carried out as follows: the total RNA is separated by the standard protocol and cDNA is synthesized using AccuScript High Fidelity 1st Strand cDNA Synthesis Kit (Stratagene) by the manufacturer's instructions. Two-step RT-PCR reaction is conducted using Oligo-dT primer and reverse transcriptase, pair of primer and Taq polymerase (Takara, Shiga, Japan). […] The product of PCR is separated using 1.5% agarose gel, dyed with ethidium bromide (EtBr), and visualized with Gel Doc 2000 UV trans-illuminator (Bio-Rad Laboratories, Hercules, Calif., USA), and the experimental data is analyzed using Quantity One software (Bio-Rad Laboratories).
# [5] = test system: PKCθ/p38 MAPK/ERK pathway; assay: Dephosphorylation of p38 MAPK and ERK1/2 in PLAG-treated RBL-2H3 cells, western blot; format: cell-based; details: PLAG pre-incubated RBL-2H3 cells, IgE-antigen complex stimulation
# Protocol: Dephosphorylation of p38 MAPK and ERK1/2 in PLAG-treated RBL-2H3 cells is determined by western blot analysis using anti-phospho-p38 and anti-phospho-ERK1/2 respectively. To activate the p38 and ERK1/2 in RBL-2H3 cells, the cells are sensitized with 50 ng/mL of anti-DNP-IgE overnight. After washing with PBS three times, 20 ng/ml of DNP-HSA is added. Each cell lysate for western blot is prepared in the PLAG-treated RBL-2H3 cells in a dose-dependent manner and incubated for the same time (15 min). β-actin is used as internal controls. ERK1/2 and p38 phosphorylation start immediately after IgE-antigen complex stimulation and remain sufficiently activated for 5 min.
smiles,measurement,setting,value
"CCCCC/C=C\C/C=C\CCCCCCCC(=O)OC(COC(C)=O)COC(=O)CCCCCCCCCCCCCCC (racemic) [PLAG, 1-palmitoyl-2-linoleoyl-3-acetylglycerol]",protection from cyclophosphamide-induced neutropenia,[1],substantially complete protection
same,decrease of average concentration of C3 in blood,"Complement 3; after administration of PLAG, p value <0.001",about 10 mg/dL
same,subjects showing decreased complement 3 (C3),"Complement 3; out of 27 patients, PLAG for a month",26 subjects
same,Platelet Conc.,platelets [2],450.00 k/ul
same,neutrophil score,[3]; Gemcitabine 50 mg/kg with PLAG 50 mg/kg,improved significantly
same,survival rate,[3]; Gemcitabine with continued PLAG vs Gemcitabine alone,improved survival rate
same,reduced neutrophil count following chemotherapy,"[3]; Gemcitabine, Cyclophosphamide or Tamoxifen daily 3 weeks, PLAG 50 mg/kg daily 3 weeks",prevented
same,"Complement 3 activation by chemotherapeutic agents, blockage","[3]; Gemcitabine, Cyclophosphamide or Tamoxifen with PLAG",largely blocked
same,activities and survival rate,[3]; Tamoxifen 50 mg/kg co-treated with PLAG 50 mg/kg vs Tamoxifen only,faster improvement of activities and survival rate
same,neutrophil count,[3]; cyclophosphamide with PLAG 50 mg/kg vs control group,improved significantly
same,Platelet (day 3) Conc,platelets [4],1072 ± 125.4 k/ul
same,expression of C3,C3,suppressed by PLAG on a concentration dependent basis
same,ERK1/2 and p38 phosphorylation,[5],down-regulated
